Laboratory results taken from US4060612A, “Pharmaceutically active 2-omega-aminoalkoxydiphenyl sulfides” (Mitsubishi Chemical Industries Ltd., priority 1976, dated 1977).
Where a name gives a salt, the structure may show the parent alone. Read-outs that look alike come from different tables or passages of the source.

What was measured:
[1] = tested on: reserpine induced hypothermia; test: Antagonism of reserpine induced hypothermia in mice (antidepressant / antireserpine activity); assay type: in vivo; conditions: for Relative Potency (antireserpine activity, Amitriptyline = 1): reserpine 5 mg/kg i.p., compounds given intraperitoneally
Experimental: (§1) Anticonvulsant activity has also been discovered in the compounds of this invention. The compounds have been tested in mice for antidepressant, sedative, anticonvulsant and anticholinergic activity. The compounds were administered intraperitoneally and the activities of the compounds were compared with those of Amitriptyline. Antidepressant activity was evaluated by antagonism of reserpine (5 mg/kg, i.p.) induced hypothermia (P. S. J. Spencer in "Antidepressant Drugs", S. Garattini and M. N. G. Duhes, ed., Excerpta Medica Foundation, Amsterdam, pages 194-204 (1967)) and antireserpine activity was expressed as relative potency (Amitriptyline = 1). LD50 was calculated by the Litchfield-Wilcoxon method. CNS depressant activity was defined by the ability of the compounds to cause neurological deficit as measured by a traction test (S. Courvoisier, R. Ducrot, L. Julou; "Psychotropic Drugs" ed. by S. Garattini, V. Ghetti, page 373 (1957)) and spontaneous motor activity. (Spontaneous motor activity was measured by an ANIMEX apparatus.) Anticonvulsant activity was determined by antagonism of electroshock induced tonic extensor [L. S. Goodman, M. Singh Grewal, W. C. Brown and E. A. Swinyard, J. Pharmacol, Exptal. Therap., 108, 168 (1953)]. Central anticholinergic effect was assessed by testing a tremorine induced tremor in mice [G. M. Everett, L. E. Bloucus and J. M. Sheppard, Science 124, 79 (1956)]. Results of these tests are summarized in Tables I and II, in which ED50 is defined as the dose of the test compounds which prevents 50% of each response.

[2] = tested on: spontaneous motor activity; test: CNS depressant activity: spontaneous motor activity (ANIMEX apparatus); assay type: in vivo, mice; conditions: Mus musculus, ip, read-out: Spontaneous Motor Activity Depression ED50
Experimental: as §1, with “Therap., 108, 168 (1953)].” left out, “Results of these tests are summarized in Tables I and II, in which ED50 is defined as the dose of the test compounds which prevents 50% of each response.” left out

tremorine induced tremor = test: Central anticholinergic effect: tremorine induced tremor in mice; assay type: in vivo; conditions: for ED50: Mus musculus, ip, read-out: Antitremorine Effect ED50
Experimental: as §1

[3] = tested on: electroshock induced tonic extensor; test: Anticonvulsant activity: antagonism of electroshock induced tonic extensor; assay type: in vivo, mice; conditions: Mus musculus, ip, read-out: Anticonvulsant Activity ED50
Experimental: as §1, with “Therap., 108, 168 (1953)].” left out, “Results of these tests are summarized in Tables I and II, in which ED50 is defined as the dose of the test compounds which prevents 50% of each response.” left out

[4] = tested on: neurological deficit (traction test); test: CNS depressant activity: muscle relaxant action (traction test); assay type: in vivo, mice; conditions: for ED50: Mus musculus, ip, read-out: Muscle Relaxant Action ED50
Experimental: as §1

[5] = Acute toxicity, LD50 (Litchfield-Wilcoxon method); assay type: in vivo; conditions: for LD50: mouse, in vivo, ip
Experimental: as §1

[6] = intraperitoneal, mice, Litchfield-Wilcoxon, read-out: LD50

c1ccc(Sc2ccccc2OCCCCN2CCOCC2)cc1 [2-(4-morpholinobutoxy) diphenyl sulfide hydrochloride]
Relative Potency (antireserpine activity, Amitriptyline = 1) [1]: 0.38

NCCCCOc1ccccc1Sc1ccccc1 [2-(4-aminobutoxy) diphenyl sulfide hydrochloride]
Relative Potency (antireserpine activity, Amitriptyline = 1) [1]: 0.36

CN(C)CCC=C1c2ccccc2CCc2ccccc21 [Amitriptyline, reference compound]
ED50 [2]: 18 mg/kg | ED50 (tremorine induced tremor): 4 mg/kg | ED50 [3]: 16 mg/kg | ED50 [4]: 15 mg/kg

CN(C)CCCOc1ccccc1Oc1ccccc1 [2-(3-dimethylaminopropoxy) diphenyl ether hydrochloride, reference compound]
Relative Potency (antireserpine activity, Amitriptyline = 1) [1]: 0.14

CN(C)CCCCCOc1ccccc1Sc1ccccc1 [2-(5-dimethylaminopentyloxy) diphenyl sulfide hydrochloride]
Relative Potency (antireserpine activity, Amitriptyline = 1) [1]: 0.15

CN(C)CCCCOc1ccccc1Sc1ccccc1 [2-(4-dimethylaminobutoxy)-diphenyl sulfide hydrochloride]
LD50 [5, 6]: 130 mg/kg | Relative Potency (antireserpine activity, Amitriptyline = 1) [1]: 0.70

CNCCCOc1ccccc1Sc1ccccc1 [2-(3-methylaminopropoxy) diphenyl sulfide hydrochloride]
LD50 [5, 6]: 135 mg/kg | Relative Potency (antireserpine activity, Amitriptyline = 1) [1]: 0.60

CNCCCCOc1ccccc1Sc1ccccc1 [2-(4-methylaminobutoxy) diphenyl sulfide hydrochloride]
ED50 ([2]; ANIMEX, mice, i.p., CNS depressant activity): > 60 mg/kg | ED50 (tremorine induced tremor; tremorine induced tremor, mice, i.p., central anticholinergic): 30 mg/kg | anticholinergic action (in words) (tremorine induced tremor; mice, i.p.): weak CNS depressant and anticholinergic action | toxicity (in words) ([5]; mice, i.p., from Tables I and II): low toxicity | LD50 [5]: 120 mg/kg | antireserpine activity (in words) ([1]; i.p., from Tables I and II): comparable to that of Amitriptyline | Relative Potency (antireserpine activity, Amitriptyline = 1) [1]: 0.90 | ED50 ([3]; electroshock, mice, i.p., dose which prevents 50% of response): > 60 mg/kg | ED50 ([4]; traction test, mice, i.p., CNS depressant activity): 50 mg/kg | CNS depressant action (in words) ([4]; mice, i.p., traction test and spontaneous motor activity): weak
